# Test results taken from ChEMBL document CHEMBL1133275, “Synthesis of the nucleoside moiety of liposidomycins: elucidation of the pharmacophore of this family of MraY inhibitors” (Bioorg Med Chem Lett, 2000).
# How the values were obtained:
# [1] = Inhibitory activity of compound was determined against bacterial translocase
# [2] = The inhibitory activity determined by using toluene-permeabilized cells of Escherichia coli and the specific nucleoside substrate of the translocase UMA5
Compound,IC50 [1] [µM],IC50 [2] [µM]
CC(=O)N[C@H]1[C@@H](O[C@@H]2O[C@H](CC(O)[C@H]3O[C@@H](n4ccc(=O)[nH]c4=O)[C@H](O)[C@@H]3O)[C@H](O)[C@H](O)[C@H]2NC(=O)/C=C/CC(C)C)O[C@H](CO)[C@@H](N)[C@@H]1O (stereo not given in full) [TUNICAMYCIN],0.48,
NC[C@H]1O[C@@H](O[C@H](CO)[C@H]2O[C@@H](n3ccc(=O)[nH]c3=O)[C@H](O)[C@@H]2O)[C@H](O)[C@@H]1O,5,
NC[C@H]1O[C@@H](O[C@@H](CO)[C@H]2O[C@@H](n3ccc(=O)[nH]c3=O)[C@H](O)[C@@H]2O)[C@H](O)[C@@H]1O,425,
CSCCC(NC(=O)NC(Cc1cccc(O)c1)C(=O)O)C(=O)NC(C(=O)N/C=C1/CC(O)C(N2CCC(=O)NC2=O)O1)C(C)N(C)C(=O)C(N)Cc1cccc(O)c1 (stereo not given),0.065,
NC[C@H]1O[C@@H](OC[C@H]2O[C@@H](n3ccc(=O)[nH]c3=O)[C@H](O)[C@@H]2O)[C@H](O)[C@@H]1O,,50
